In patent publication US9932309B2, “2-oxo-3,4-dihydropyridine-5-carboxylates and their use” (UNIVERSITE DE LILLE 2 DROIT ET SANTE, priority 2014, dated 2018) one finds EC50, hTGR5 % trans and mTGR5 % trans data, which are given here for 17 compounds.

In one test the target is T1, hTGR5 (Homo sapiens, UniProt Q8TDU6).
T1 construct: expressed in transfected cells; host or cells: HEK293 cells, transiently co-transfected with the pCRE TA-Luciferase reporter
T1 sequence (Q8TDU6 1-330): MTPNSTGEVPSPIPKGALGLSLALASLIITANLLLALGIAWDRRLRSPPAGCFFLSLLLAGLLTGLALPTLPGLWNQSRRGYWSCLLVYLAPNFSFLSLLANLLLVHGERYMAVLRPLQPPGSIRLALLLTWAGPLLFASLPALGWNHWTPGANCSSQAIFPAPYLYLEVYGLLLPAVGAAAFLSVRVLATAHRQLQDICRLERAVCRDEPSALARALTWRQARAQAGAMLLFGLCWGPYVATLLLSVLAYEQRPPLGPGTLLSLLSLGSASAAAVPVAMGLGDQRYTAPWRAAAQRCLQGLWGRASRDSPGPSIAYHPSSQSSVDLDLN
The test can be described thus: TGR5/CRE Luciferase Assay (hTGR5). In kind it is cell-based. Conditions: for EC50: HEK 293 cells co-transfected with pCMV tag4b-TGR5h and pCRE TA-Luciferase, overnight incubation; for hTGR5 % trans: percentage of the 10 μM LCA value, HEK 293 cells transfected with hTGR5. The procedure, abridged:
(§1)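 Transiently co-transfected HEK293 cells expressing human or mouse TGR5 plus a CRE-luciferase reporter were incubated overnight with rising compound concentrations in duplicate. Luminescence reported cAMP-driven expression; 10 μM lithocholic acid served as positive reference. Curves fitted to a 4-parameter logistic.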

The target of a further test is T2, mTGR5 (Mus musculus, UniProt Q80SS6).
T2 construct: expressed in transfected cells; host or cells: HEK293 cells, transiently co-transfected with the pCRE TA-Luciferase reporter
T2 sequence (Q80SS6 1-329): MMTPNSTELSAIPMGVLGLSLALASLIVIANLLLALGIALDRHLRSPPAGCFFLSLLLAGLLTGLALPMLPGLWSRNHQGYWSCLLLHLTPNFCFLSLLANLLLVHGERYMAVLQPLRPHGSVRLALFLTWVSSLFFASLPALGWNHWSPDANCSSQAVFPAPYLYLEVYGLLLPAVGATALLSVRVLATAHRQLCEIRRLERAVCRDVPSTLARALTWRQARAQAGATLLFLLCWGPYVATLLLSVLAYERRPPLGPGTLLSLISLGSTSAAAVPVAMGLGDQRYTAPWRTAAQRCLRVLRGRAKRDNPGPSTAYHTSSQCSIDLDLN
The test can be described thus: TGR5/CRE Luciferase Assay (mTGR5). In kind it is cell-based. Conditions: for EC50: HEK 293 cells co-transfected with pCMV AC6-TGR5m and pCRE TA-Luciferase, overnight incubation; for mTGR5 % trans: percentage of the 10 μM LCA value, HEK 293 cells transfected with mTGR5. In a few lines: as §1

As for `COCCN1C(=O)CC(c2ccc(Cl)cc2)C(C(=O)OCc2ccccc2C)=C1C` (centres unmarked) [Example 98, o-tolylmethyl 4-(4-chlorophenyl)-1-(2-methoxyethyl)-6-methyl-2-oxo-3,4-dihydropyridine-5-carboxylate], the EC50 was 300 nM on hTGR5 and 500 nM at mTGR5.

At hTGR5, `COCCN1C(=O)CC(c2ccc(Cl)cc2)C(C(=O)OCc2ccc(C)cc2)=C1C` (centres unmarked) [Example 100, p-tolylmethyl 4-(4-chlorophenyl)-1-(2-methoxyethyl)-6-methyl-2-oxo-3,4-dihydropyridine-5-carboxylate] returned an EC50 of 600 nM and a hTGR5 % trans of 72%. Further, on mTGR5, the EC50 is 400 nM and the mTGR5 % trans was found to be 89%.

For `COCCN1C(=O)CC(c2ccc(Cl)cc2)C(C(=O)OCc2c(C)cc(C)cc2C)=C1C` (centres unmarked) [Example 101, (2,4,6-trimethylphenyl)methyl 4-(4-chlorophenyl)-1-(2-methoxyethyl)-6-methyl-2-oxo-3,4-dihydropyridine-5-carboxylate], at hTGR5, it took 200 nM to reach a half-maximal effect (EC50) and the hTGR5 % trans turned out to be 75%. Also, at mTGR5, the EC50 is 200 nM and the mTGR5 % trans came out at 84%.

As for `COCCN1C(=O)CC(c2ccc(Cl)cc2)C(C(=O)OCc2cccc(OC)c2)=C1C` (centres unmarked) [Example 103, (3-methoxyphenyl)methyl 4-(4-chlorophenyl)-1-(2-methoxyethyl)-6-methyl-2-oxo-3,4-dihydropyridine-5-carboxylate], at hTGR5, a half-maximal effect (EC50) was put at 500 nM and the hTGR5 % trans amounted to 85%. On mTGR5, this compound came in with an EC50 of 400 nM and a mTGR5 % trans of 95%.

For the compound `COCCN1C(=O)CC(c2ccc(Cl)cc2)C(C(=O)OCc2ccc(OC)cc2)=C1C` (centres unmarked) [Example 104, (4-methoxyphenyl)methyl 4-(4-chlorophenyl)-1-(2-methoxyethyl)-6-methyl-2-oxo-3,4-dihydropyridine-5-carboxylate], at hTGR5, the EC50 is 200 nM and the hTGR5 % trans came out at 71%. In addition, on mTGR5, the EC50 came to 200 nM and the mTGR5 % trans is listed as 85%.

As for `COCCN1C(=O)CC(c2ccc(Cl)cc2)C(C(=O)OCc2ccc3ccccc3c2)=C1C` (centres unmarked) [Example 106, 2-naphthylmethyl 4-(4-chlorophenyl)-1-(2-methoxyethyl)-6-methyl-2-oxo-3,4-dihydropyridine-5-carboxylate], the figures for the concentration giving a half-maximal response (EC50) on hTGR5 and at mTGR5 were 400 nM and 200 nM, respectively.

At hTGR5, `COCCN1C(=O)CC(c2ccc(Cl)cc2)C(C(=O)OCc2ccncc2)=C1C` (centres unmarked) [Example 107, 4-pyridylmethyl 4-(4-chlorophenyl)-1-(2-methoxyethyl)-6-methyl-2-oxo-3,4-dihydropyridine-5-carboxylate] came in with an EC50 of 1200 nM and a hTGR5 % trans of 71%. Moreover, on mTGR5, a half-maximal effect (EC50) was put at 600 nM and the mTGR5 % trans is reported as 83%.

Turning to `COCCN1C(=O)CC(c2ccc(Cl)cc2)C(C(=O)OCc2ccc(-c3ccccc3)cc2)=C1C` (centres unmarked) [Example 108, (4-phenylphenyl)methyl 4-(4-chlorophenyl)-1-(2-methoxyethyl)-6-methyl-2-oxo-3,4-dihydropyridine-5-carboxylate], the EC50 on hTGR5 was 500 nM; at mTGR5, 600 nM.

`COCCN1C(=O)CC(c2ccc(Cl)cc2)C(C(=O)OCCc2ccccc2)=C1C` (centres unmarked) [Example 110, 2-phenylethyl 4-(4-chlorophenyl)-1-(2-methoxyethyl)-6-methyl-2-oxo-3,4-dihydropyridine-5-carboxylate]: on hTGR5, a half-maximal response (EC50) required 2300 nM and the hTGR5 % trans came to 50%. At mTGR5, this compound had an EC50 of 1600 nM and a mTGR5 % trans of 42%.

As for `COCCN1C(=O)CC(c2ccc(Cl)cc2)C(C(=O)OCC(=O)c2ccccc2)=C1C` (centres unmarked) [Example 112, Phenacyl 4-(4-chlorophenyl)-1-(2-methoxyethyl)-6-methyl-2-oxo-3,4-dihydropyridine-5-carboxylate], on hTGR5, the EC50 turned out to be 5200 nM and the hTGR5 % trans was 20%. On mTGR5, this compound came in with an EC50 of 3200 nM and a mTGR5 % trans of 46%.

Regarding `COCCN1C(=O)CC(c2ccc(Cl)cc2)C(C(=O)OCc2ccc(OCCCN(C)C)cc2)=C1C` (centres unmarked) [Example 116, [4-[3-(dimethylamino)propoxy]phenyl]methyl 4-(4-chlorophenyl)-1-(2-methoxyethyl)-6-methyl-2-oxo-3,4-dihydropyridine-5-carboxylate], at hTGR5, the EC50 stood at 1400 nM and the hTGR5 % trans came out at 76%. In addition, at mTGR5, the EC50 came to 1600 nM and the mTGR5 % trans was 82%.

On hTGR5, `COCCN1C(=O)CC(c2ccc(Cl)cc2)C(C(=O)OCc2ccc(OCCC[N+](C)(C)C)cc2)=C1C.[I-]` (centres unmarked) [Example 117, 3-[4-[[4-(4-chlorophenyl)-1-(2-methoxyethyl)-6-methyl-2-oxo-3,4-dihydropyridine-5-carbonyl]oxymethyl]phenoxy]propyl-trimethyl-ammonium; iodide] returned an EC50 of 1600 nM and a hTGR5 % trans of 74%. For the same compound, on mTGR5, the EC50 is 4200 nM and the mTGR5 % trans amounted to 77%.

Turning to `COCCOc1ccc(COC(=O)C2=C(C)N(CCOC)C(=O)CC2c2ccc(Cl)cc2)cc1` (centres unmarked) [Example 119, [4-(2-methoxyethoxy)phenyl]methyl 4-(4-chlorophenyl)-1-(2-methoxyethyl)-6-methyl-2-oxo-3,4-dihydropyridine-5-carboxylate], at hTGR5, a half-maximal response (EC50) required 100 nM and the hTGR5 % trans is on record as 85%. At mTGR5, this compound returned an EC50 of 100 nM and a mTGR5 % trans of 83%.

As to `CCCC1CC(=O)N(CCOC)C(C)=C1C(=O)OCc1ccccc1OC` (centres unmarked) [Example 121, (2-methoxyphenyl)methyl 1-(2-methoxyethyl)-6-methyl-2-oxo-4-propyl-3,4-dihydropyridine-5-carboxylate], on hTGR5, it took 1100 nM to reach a half-maximal effect (EC50) and the hTGR5 % trans is 51%. On mTGR5, this compound displayed an EC50 of 1200 nM and a mTGR5 % trans of 49%.

At hTGR5, `COCCN1C(=O)CC(c2ccc(-c3ccccc3)cc2)C(C(=O)OCc2ccccc2)=C1C` (centres unmarked) [Example 123, Benzyl 1-(2-methoxyethyl)-6-methyl-2-oxo-4-(4-phenylphenyl)-3,4-dihydropyridine-5-carboxylate] yielded an EC50 of 1400 nM and a hTGR5 % trans of 17%. In addition, on mTGR5, the EC50 was found to be 2800 nM and the mTGR5 % trans is given as 10%.

For the compound `COCCN1C(=O)CC(c2ccc(C#N)cc2)C(C(=O)OCc2ccccc2OC)=C1C` (centres unmarked) [Example 125, (2-methoxyphenyl)methyl 4-(4-cyanophenyl)-1-(2-methoxyethyl)-6-methyl-2-oxo-3,4-dihydropyridine-5-carboxylate], at hTGR5, the EC50 worked out at 200 nM and the hTGR5 % trans worked out at 86%. At mTGR5, this compound registered an EC50 of 200 nM and a mTGR5 % trans of 100%.

At hTGR5, `COCCN1C(=O)CC(c2ccc(Cl)c(Cl)c2)C(C(=O)OCc2ccccc2OC)=C1C` (centres unmarked) [Example 127, (2-methoxyphenyl)methyl 4-(3,4-dichlorophenyl)-1-(2-methoxyethyl)-6-methyl-2-oxo-3,4-dihydropyridine-5-carboxylate] yielded an EC50 of 100 nM and a hTGR5 % trans of 89%. At mTGR5, this compound yielded an EC50 of 100 nM and a mTGR5 % trans of 109%.
